# The RepoRT retention time repository (doi:10.1021/acs.analchem.2c02893)
# Test: RP, Thermo Scientific Acclaim RSLC 120 C18, 100 × 2.1 mm, 2.2 µm, 30 °C, 0.2 mL/min, estimated dead time 1.1 min; A: 90% water + 10% methanol + 0.01% formic acid + 5 mM ammonium formate, pH 3.61; B: methanol + 0.01% formic acid + 5 mM ammonium formate, pH 3.61; gradient (min/%B) 0/1 1/1 2/39 13/99.9 15/99.9 15.1/1 20.1/1
# Settings: stereoisomer not certain
row,SMILES,LC retention time [min]
1,CC(C)(C)C(O)C(Oc1ccc(Cl)cc1)n1cncn1 (centres undefined) [Triadimenol],9.93
2,O=C(O)CCCOc1ccc(Cl)cc1Cl [2.4-DB],10
3,O=c1[nH]c2c(c(=O)n1C1CCCCC1)CCC2 [Lenacil],8.27
4,CCN(Cc1ccncc1)C(=O)C(CO)c1ccccc1 (centres undefined) [Tropicamide],6.03
5,CN(C)P(=O)(OP(=O)(N(C)C)N(C)C)N(C)C [Schradan],5.36
6,CCC(=O)OC1(C(=O)SCF)C(C)CC2C3CC(F)C4=CC(=O)C=CC4(C)C3(F)C(O)CC21C (centres undefined) [Fluticasone propionate],10.7
7,CC(C)N1CCN(c2ccc(OCC3COC(Cn4cncn4)(c4ccc(Cl)cc4Cl)O3)cc2)CC1 (centres undefined) [Terconazole],8.2
8,CCN(CC)CCNC(=O)c1ccc(N)cc1 [Procainamide],2.83
9,CCCCCCCC(C)(C)c1ccc(C2CCCC(O)C2)c(O)c1 (centres undefined) [CP 47-497-C8],13.5
10,CCCCCn1cc(C(=O)c2cccc3ccccc23)c2ccc(OC)cc21 [JWH-018-6-Methoxy-Ind],12.4
11,COC1CC(CC2CCC(C)C(C(C)C(=O)O)O2)OC2(OC(C)(C3CCC(C)(C4OC(C5OC(O)(CO)C(C)CC5C)CC4C)O3)CC2C)C1C (centres undefined) [Nigericin],13.9
12,COC(=O)C1=C(C)NC(C)=C(C(=O)OC)C1c1ccccc1[N+](=O)[O-] [Nifedipine],8.31
13,COc1cc(OC)nc(NC(=O)NS(=O)(=O)c2c(-c3nnn(C)n3)cnn2C)n1 [Azimsulfuron],7.62
14,Nc1ccc(S(=O)(=O)Nc2cncc(Cl)n2)cc1 [Sulfaclozine],5.45
15,NCC(CC(=O)O)c1ccc(Cl)cc1 (centres undefined) [Baclofen],4.27
16,CCCCCCCCCCCC(=O)N(CCO)CCO [Lauryl diethanolamide],11.7
17,CC(C)C1(C)N=C(c2ncccc2C(=O)O)NC1=O (centres undefined) [Imazapyr],4.1
18,Nc1nc(N)nc(N)n1 [Melamine],1.45
19,CN(C)c1ccc(N=Nc2ccccc2)cc1 [Butter yellow],12.4
20,CC(=O)Nc1c(I)c(C(=O)O)c(I)c(C(=O)NCCO)c1I [Ioxitalamin acid],2.09
21,CC(C)(N)Cc1ccccc1 [Phentermine],4.64

row,SMILES,LC retention time [min]
1,CCOP(=S)(Oc1cnc(C(C)(C)C)nc1)OC(C)C (centres undefined) [Tebupirimphos],12.3
2,CNC(C)Cc1ccc(F)cc1 (centres undefined) [Amphetamine-4-F-Methyl (4-F-methamphetamine)],4.43
3,CC(Cc1ccccc1)NCCC(c1ccccc1)c1ccccc1 (centres undefined) [Prenylamine],8.89
4,CCC1OC(=O)C(C)C(OC2CC(C)(OC)C(O)C(C)O2)C(C)C(OC2OC(C)CC(N(C)C)C2O)C(C)(O)CC(C)CN(C)C(C)C(O)C1(C)O (centres undefined) [Azithromycin],5.98
5,CC(=O)OCC(=O)C12OC3(CCCC3)OC1CC1C3CCC4=CC(=O)C=CC4(C)C3(F)C(O)CC12C (centres undefined) [Amcinonide],11.2
6,Cc1cc2c(s1)Nc1ccccc1N=C2N1CCN(C)CC1 [Olanzapine],4.99
7,COc1cc(CC(C)N)c(OC)cc1Cl (centres undefined) [DOC],5.67
8,CC(=O)Nc1ccc(-c2ccc(C=NN3CC(=O)NC3=O)o2)cc1 [Acetaminodantrolene],5.67
9,CCOc1c(N)c2c(c(OCC)c1OCC)C(C1c3c(cc4c(c3OC)OCO4)CCN1C)OC2=O (centres undefined) [Tritoqualine],12
10,CCOP(=S)(OCC)SCn1nnc2ccccc2c1=O [Azinphos-ethyl],10.2
11,C#CCN(C)C(C)Cc1ccccc1 (centres undefined) [Deprenyl / Selegiline],4.68
12,Cn1ncc(N)c(Cl)c1=O [Chloridazone-methyl-desphenyl],3.53
13,"Cn1cnc2c1c(=O)n(CCCC(=O)O)c(=O)n2C [1-(3-carboxypropyl)-3,7-dimethylxanthine]",4.48
14,CCCSP(=S)(OCC)Oc1ccc(Cl)cc1Cl (centres undefined) [Tokuthion (Prothiophos)],13.6
15,CNCC(O)c1cccc(NS(C)(=O)=O)c1 (centres undefined) [Amidephrine],2.54
16,OCCOCCOCCN1CCN(C(c2ccccc2)c2ccc(Cl)cc2)CC1 (centres undefined) [Etodroxizine],8.33
17,CN(C)C(=O)Nc1ccc(Cl)cc1 [Monuron],6.9
18,CCN(C(C)=O)c1cccc(-c2ccnc3c(C#N)cnn23)c1 [Zaleplon],6.61
19,"CCCCCCCCCCCCCC[N+](C)(C)[O-] [N,N-Dimethyltetradecylamine-N-oxide]",12.6
20,CCN(CCCCOC(=O)c1ccc(OC)c(OC)c1)C(C)Cc1ccc(OC)cc1 (centres undefined) [Mebeverine],6.79
21,CCN(CC)C(=O)C1C=C2c3cccc4c3C(O)(CC2N(C)C1)C(=O)N4 (centres undefined) [2-Oxo-3-hydroxy-LSD],4.23

row,SMILES,LC retention time [min]
1,CCCC(C)(COC(N)=O)COC(=O)NC(C)C (centres undefined) [Carisoprodol],7.99
2,C=C(C)C1CCC(C)=CC1c1c(O)cc(CCCCC)cc1O (centres undefined) [Cannabidiol],12.7
3,CCC(=O)C(CCN(C)C)(c1ccccc1)c1ccccc1 [Methadone-Nor],7.68
4,Nc1nc2c(ncn2COCCO)c(=O)[nH]1 [Aciclovir],2.34
5,CCOC(=O)c1ccc(O)cc1 [Ethylparaben],7.15
6,Clc1ccc(C(c2ccccc2)N2CCNCC2)cc1 (centres undefined) [Piperazine -1[(4-chlorophenyl) phenyl methyl]],8.53
7,Cc1cc(NS(=O)(=O)c2ccc(N)cc2)on1 [Sulfamethoxazole (Impurity F)],4.39
8,Cc1oc(C)c(C(=O)Nc2ccccc2)c1C [Methfuroxam],8.79
9,CN(C)C1C(=O)C(C(N)=O)=C(O)C2(O)C(=O)C3=C(O)c4c(O)ccc(Cl)c4C(C)(O)C3CC12 (centres undefined) [Chlortetracycline],4.5
10,O=c1[nH]cnc2[nH]ncc12 [Allopurinol],2.19
11,Nc1ncnc2nc[nH]c12 [Adenine],2.43
12,CC12CC1(C)C(=O)N(c1cc(Cl)cc(Cl)c1)C2=O (centres undefined) [Procymidone],10.2
13,CCCCCn1nc(C(=O)NC23CC4CC(CC(C4)C2)C3)c2ccccc21 [AKB48 (APINACA)],14
14,COc1nc(C)nc(NC(=O)NS(=O)(=O)c2ccccc2OCCCl)n1 [Triasulfuron],6.6
15,NC(=S)c1c(Cl)cccc1Cl [Chlorothiamide],5.69
16,CCON=C(OC(=O)c1ccccc1)c1c(OC)ccc(Cl)c1OC [Benzoximate],11.3
17,COc1cc(NS(=O)(=O)c2ccc(N)cc2)nc(OC)n1 [Sulfadimethoxine],5.6
18,COC(=O)c1c(Cl)c(Cl)c(C(=O)OC)c(Cl)c1Cl [Chlorthal-dimethyl (DCPA. Dacthal) (NH4)],11.6
19,CC(C)C(O)(C(=O)OCC1=CC[N+]2([O-])CCC(O)C12)C(C)O (centres undefined) [Lycopsamine-N-oxide],3.94
20,NC(=O)C(CCN1CCCCC1)(c1ccccc1)c1ccccc1 [Fenpipramide],5.19
21,O=C1NC(=O)C(c2ccccc2)(c2ccccc2)N1 [Phenytoin],7.08

row,SMILES,LC retention time [min]
1,CN1CCN(C)C1=O [Imidazolidinon- 1-3-Dimethyl-2-],3.53
2,CN1CCC(OC(c2ccccc2)c2ccccc2)CC1 [Diphenylpyraline],7.23
3,CC=C1N(C)C(C)CC1(c1ccccc1)c1ccccc1 (centres undefined) [EDDP],6.38
4,CN(C)C1C(=O)C(C(N)=O)=C(O)C2(O)C(=O)C3=C(O)c4c(O)cccc4C(C)(O)C3C(O)C12 (centres undefined) [Oxytetracycline],4.6
5,CCNC(C)C(=O)c1ccccc1 (centres undefined) [Cathinone-Ethyl],3.93
6,CCN(N=O)C(C)Cc1cccc(C(F)(F)F)c1 (centres undefined) [Fenfluramine-n-Nitroso],9.38
7,CC(=O)C1(O)CCC2C3CC(C)C4=CC(=O)CCC4(C)C3CCC21C (centres undefined) [Medroxyprogesterone],10.7
8,CC12CCC(=O)C=C1C(O)CC1C2C(O)CC2(C)C1CCC2(O)C(=O)CO (stereo not drawn) [6-beta-Hydroxycortisol],4.42
9,CN(C)CC(c1ccc(O)cc1)C1(O)CCCCC1 (centres undefined) [Venlafaxine-O-Desmethyl (Desvenlafaxine)],4.76
10,Cc1cc(C)c(C2=C(OC(=O)CC(C)(C)C)C3(CCCC3)OC2=O)c(C)c1 [Spiromesifen],12.8
11,CC(C)(C)C(O)(CCc1ccc(Cl)cc1)Cn1cncn1 (centres undefined) [Tebuconazole],10.9
12,O=C(NC(=O)c1c(F)cccc1F)Nc1ccc(C(F)(F)F)cc1 [Penfluron],10.9
13,CC=CCC1=C(C)C(OC(=O)C2C(C=C(C)C)C2(C)C)CC1=O (centres undefined) [Pyrethrins: Cinerin I],12.9
14,O=C(Nc1cccc(C2=NCCN2)c1)Nc1cccc(C2=NCCN2)c1 [Imidocarb],3.78
15,CC(C)c1ccc(NC(=O)N(C)C)cc1 [Isoproturon],8.32
16,CCOC(=O)C1=C(C)NC(C)=C(C(=O)OC)C1c1cccc(Cl)c1Cl (centres undefined) [Felodipine],11
17,COc1cc2[nH]c(C)c(CCN3CCN(c4ccccc4)CC3)c2cc1OC [Oxypertine],5.76
18,COc1ccc(CCN)cc1OC [DMPEA],3.53
19,CCC(C)C(=O)OC1CC(C)C=C2C=CC(C)C(CCC3CC(O)CC(=O)O3)C21 (centres undefined) [Lovastatin],12
20,Cn1sc(Cl)cc1=O [CMI (5-Chloro-2-methyl-4-isothiazolin-3-on)],4.51
21,Cc1cc(C2CC2)nc(Nc2ccccc2)n1 [Cyprodinil],11
